ChEMBL document CHEMBL3745637, “New hybrid molecules with anticonvulsant and antinociceptive activity derived from 3-methyl- or 3,3-dimethyl-1-[1-oxo-1-(4-phenylpiperazin-1-yl)propan-2-yl]pyrrolidine-2,5-diones” (Bioorg Med Chem, 2016)
Activity calls are given as the source filed them. The calls are words filed in the database; no cut-off is given here.

Experiments:
[1] = system: Mus musculus; test: Anticonvulsant activity in ip dosed Swiss mouse assessed as protection against maximal electroshock-induced seizures at 0.25 hrs; type: functional
[2] = system: Mus musculus; test: Anticonvulsant activity in Swiss mouse assessed as protection against maximal electroshock-induced seizures at 100 mg/kg, ip pretreated for 2 hrs; type: functional, organism-based
[3] = system: Mus musculus; test: Anticonvulsant activity in Swiss mouse assessed as protection against maximal electroshock-induced seizures at 300 mg/kg, ip pretreated for 0.25 hrs; type: functional, organism-based
[4] = system: Mus musculus; test: Anticonvulsant activity in Swiss mouse assessed as protection against maximal electroshock-induced seizures at 100 mg/kg, ip pretreated for 1 hr; type: functional, organism-based
[5] = system: Mus musculus; test: Anticonvulsant activity in Swiss mouse assessed as protection against maximal electroshock-induced seizures at 300 mg/kg, ip pretreated for 0.5 hrs; type: functional, organism-based
[6] = system: Mus musculus; test: Anticonvulsant activity in Swiss mouse assessed as protection against maximal electroshock-induced seizures at 300 mg/kg, ip pretreated for 2 hrs; type: functional, organism-based
[7] = system: Mus musculus; test: Anticonvulsant activity in Swiss mouse assessed as protection against maximal electroshock-induced seizures at 300 mg/kg, ip pretreated for 1 hr; type: functional, organism-based
[8] = system: Mus musculus; test: Anticonvulsant activity in Swiss mouse assessed as protection against maximal electroshock-induced seizures at 100 mg/kg, ip pretreated for 0.5 hrs; type: functional, organism-based
[9] = organism: Rattus norvegicus; test: Displacement of [3H]nitrendipine from calcium channel L-Type dihydropyridine site in rat cerebral cortex at 100 uM after 120 mins by scintillation counting method; type: tissue-based
[10] = Protective index, ratio of TD50 for neurotoxicity in ip dosed Swiss mouse to ED50 for anticonvulsant activity in ip dosed MES Swiss mouse model at 0.25 hrs; type: toxicity, organism-based; conditions: in vivo, read-out: Ratio TD50/ED50
[11] = Neurotoxicity in ip dosed Swiss mouse seizure model assessed as motor impairment pretreated for 0.25 hrs measured within 60 s by chimney test; type: toxicity, organism-based; conditions: in vivo
[12] = organism: Rattus norvegicus; test: Displacement of [3H]Batrachotoxinin from sodium channel site 2 in rat cerebral cortex at 500 uM after 60 mins by scintillation counting method; type: tissue-based
[13] = organism: Rattus norvegicus; test: Displacement of [3H]Batrachotoxinin from sodium channel site 2 in rat cerebral cortex at 100 uM after 60 mins by scintillation counting method; type: tissue-based
[14] = Protective index, ratio of TD50 for neurotoxicity in ip dosed Swiss mouse to ED50 for anticonvulsant activity in ip dosed MES Swiss mouse model at 0.5 hrs; type: toxicity, organism-based; conditions: in vivo, read-out: Ratio TD50/ED50
[15] = system: Mus musculus; test: Anticonvulsant activity in ip dosed Swiss mouse assessed as protection against maximal electroshock-induced seizures at 0.5 hrs; type: functional
[16] = system: Mus musculus; test: Anticonvulsant activity in ip dosed Swiss mouse assessed as reduction in clonic seizures at 0.5 hrs by subcutaneous pentylenetetrazole seizure test; type: functional
[17] = system: Mus musculus; test: Anticonvulsant activity against ip dosed Swiss mouse seizure model assessed as protection at 0.5 hrs by 6 Hz psychomotor seizure test; type: functional
[18] = Protective index, ratio of TD50 for neurotoxicity in ip dosed Swiss mouse to ED50 for anticonvulsant activity in ip dosed Swiss mouse 6 Hz psychomotor seizure model at 0.5 hrs; type: toxicity, organism-based; conditions: in vivo, read-out: Ratio TD50/ED50
[19] = system: Mus musculus; test: Anticonvulsant activity in Swiss mouse assessed as protection against maximal electroshock-induced seizures at 100 mg/kg, ip pretreated for 0.25 hrs; type: functional, organism-based
[20] = system: Mus musculus; test: Toxicity in Swiss mouse assessed as death at 300 mg/kg, ip measured after 0.25 hrs; type: organism-based; conditions: in vivo

Structure (SMILES)	Activity [2]	Activity [3]	Activity [4]	Activity [5]	Activity [6]	other results
CC(C(=O)N1CCN(c2ccccc2)CC1)N1C(=O)CC(C)(C)C1=O (centres undefined)	inactive	Active	inactive	Active	inactive	ED50 [1]: > 130 mg/kg
CC(C(=O)N1CCN(c2ccccc2C(F)(F)F)CC1)N1C(=O)CC(C)(C)C1=O (centres undefined)	inactive	Active	inactive	Active		ED50 [1]: > 130 mg/kg
CC1CC(=O)N(C(C)C(=O)N2CCN(c3ccc(Cl)c(Cl)c3)CC2)C1=O (centres undefined)	inactive		inactive			
CC1CC(=O)N(C(C)C(=O)N2CCN(c3cccc(Cl)c3Cl)CC2)C1=O (centres undefined)		inactive		inactive	inactive	Activity [7]: inactive
COc1cccc(N2CCN(C(=O)C(C)N3C(=O)CC(C)C3=O)CC2)c1 (centres undefined)	inactive		inactive			Activity [8]: inactive
CC1(C)O[C@@H]2[C@@H](CO[C@@]3(COS(N)(=O)=O)OC(C)(C)O[C@@H]23)O1						inhibition [9]: 7.9%
CC1CC(=O)N(C(C)C(=O)N2CCN(c3cccc(F)c3)CC2)C1=O (centres undefined)	inactive		inactive		inactive	Activity [7]: inactive; Activity [8]: inactive
Cc1cccc(N2CCN(C(=O)C(C)N3C(=O)CC(C)C3=O)CC2)c1 (centres undefined)	inactive	Active	inactive	Active	inactive	selectivity ratio at 0.25 h [10]: 1.73; ED50 [1]: 122 mg/kg; TD50 at 0.25 h [11]: 210 mg/kg
NC(=O)N1c2ccccc2C=Cc2ccccc21						inhibition [12]: 33.6%; inhibition [13]: 17.4%
COC[C@@H](NC(C)=O)C(=O)NCc1ccccc1 [LACOSAMIDE]						selectivity ratio at 0.5 h [14]: 3.6; ED50 [15]: 9.4 mg/kg; ED50 [16]: > 500 mg/kg; ED50 [17]: 6.4 mg/kg; selectivity ratio at 0.5 h [18]: 5.26
CC(C(=O)N1CCN(c2ccccc2F)CC1)N1C(=O)CC(C)(C)C1=O (centres undefined)		inactive		inactive	inactive	Activity [7]: inactive
CC1CC(=O)N(C(C)C(=O)N2CCN(c3ccccc3F)CC2)C1=O (centres undefined)	inactive		inactive		inactive	Activity [7]: inactive; Activity [8]: inactive
CCC(C(=O)N1CCN(c2cccc(C(F)(F)F)c2)CC1)N1C(=O)CC(C)(C)C1=O (centres undefined)	inactive					
CC(C(=O)N1CCN(C)CC1)N1C(=O)CC(C)(C)C1=O (centres undefined)		inactive		inactive	inactive	Activity [7]: inactive
CC1CC(=O)N(C(C)C(=O)N2CCN(c3ccccc3Cl)CC2)C1=O (centres undefined)	inactive		inactive		inactive	Activity [19]: inactive; Activity [8]: inactive
CC(C(=O)N1CCN(c2ccccc2Cl)CC1)N1C(=O)CC(C)(C)C1=O (centres undefined)		inactive			inactive	
CC(C(=O)N1CCN(c2ccc(C(F)(F)F)cc2)CC1)N1C(=O)CC(C)(C)C1=O (centres undefined)		inactive				Activity [20]: Toxic
